Data on 89 compounds can be found in a melting point compilation (Tetko et al.; mined from patent text by program, amines drawn as free bases though some values may be those of a salt).

A word on the melting point: it is the temperature, or range, at which the solid turns liquid.

With `CCc1nnc2c(N(C(C)=O)C(C)=O)nc3ccccc3n12`, the melting point is 157 to 159 °C. As for `CC1(C)Sc2ccccc2C(Cl)=C1C=O`, the figure is 49 to 52 °C; as for `O=C1CCC(N2Cc3c(OCc4ccc(C(F)(F)F)cc4)cccc3C2=O)C(=O)N1` (centres undefined), 241 to 243 °C. The compound `Cn1c2ccncc2c(=O)n2nccc12` registered a melting point greater than 300 °C. On to `COc1cc(C)c(Cl)cc1C(=O)Cl`, for which the melting point fell in the range of 106 to 107 °C. Turning to `CC(C)(C)c1cccc2c1C(=O)NS2(=O)=O`, the melting point was 185 to 187 °C.

The compound `CCOc1cc(Cc2ccccn2)ccc1CCCOc1c(CC(=O)O)cccc1OC` returned a melting point of 97.5 to 98.5 °C. Turning to `CN1C(=O)CC[C@]2(C)c3ccc(-c4ccc(C(F)(F)F)cc4)cc3CC[C@@H]12`, the melting point fell in the range of 86 to 89 °C.

For `Oc1ccc(-c2c3ccccc3cc3sc4cc(O)ccc4c23)cc1`, the melting point lay within 197 to 199 °C. With `Cn1cncc1C(O)(c1ccc(F)cc1)c1ccc2c(c1)c(-c1cccc(Cl)c1)nc1nnnn12` (centres undefined), the melting point stood at 200 °C. Regarding `CNc1cc2cnnn2c(C)n1`, the melting point lay within 162 to 164 °C.

In the case of `COCCCOc1ccc(/C=C(\C)C(=O)O)c(Oc2ncc(Cl)cc2Cl)c1`, the melting point fell in the range of 128 to 130 °C. As for `CON1C(=O)CC2(CCN(C(=O)OCCBr)CC2)C1=O`, the figure is 134 °C; as for `CC(C)(C)C(=O)OCOC(=O)[C@H]1[C@@H]2CC[C@@](N)(C(=O)O)[C@@H]21`, 205 to 206 °C; as for `COCC(O)COc1cccc2c1CCNC2=O` (centres undefined), 119 to 123 °C.

With `COc1ccc(Cn2cnc3c(-c4ccco4)nc(C)nc32)cc1`, the melting point was in the range of 127 to 130 °C. Take `CCOC(=O)c1ncn(-c2nccs2)c1S(N)(=O)=O`: the melting point fell in the range of 84 to 85 °C. As for `CCC1(CC)OC(=O)Nc2ccccc21`, the figure is 159 to 160 °C; as for `COC(=O)c1cccc(-c2ccnc3c(C(=O)c4cccs4)cnn23)c1`, 180 to 184 °C.

Compound `CCn1c(=O)n(OCc2ccccc2)c(=O)c2cc(F)c(N3CCNCC3)cc21` returned a melting point of 166 to 167 °C. The compound `COc1cc(S(N)(=O)=O)cnc1N=Nc1cc(OC(C)C)c2ccccc2c1O` returned a melting point of 289 °C. Take `Cc1cc(Cl)ccc1OCC(=O)Nc1ccc(S(N)(=O)=O)cc1`: the melting point is 218 to 220 °C. The compound `CNS(=O)(=O)c1cccc(-c2cnc3[nH]cc(C(=O)C(C)(C)C)c3n2)c1` came in with a melting point of 245 to 247 °C.

In turn, `O=C(c1c(F)cccc1F)N1CNCN(c2ccc(Oc3ccc(C(F)(F)F)cc3Cl)cc2F)C1=O` registered a melting point of 135 to 137 °C. The compound `c1ccc(CCN2CCc3[nH]c4ccc5scc(-c6ccccc6)c5c4c3C2)cc1` returned a melting point of 220 to 221 °C. In the case of `CSc1ccc(Oc2ccc(C#N)cc2)cc1`, the melting point was 65 to 66 °C. The compound `CCCCS(=O)c1nc[nH]n1` (centres undefined) had a melting point of 82 to 83 °C. `CCC(NC(=O)OC)c1ccc(Cl)c2nc3n(c12)CCCN3c1ccc(Cl)cc1Cl` (centres undefined): the melting point was in the range of 201 to 203 °C.

`O=P(O)(c1ccc(S(=O)(=O)c2ccccc2)cc1)c1ccc(S(=O)(=O)c2ccccc2)cc1` gave a melting point of 155 to 165 °C. The compound `C=CC(=O)OCCOc1ccc(Cl)c2c1Sc1ccccc1C2` gave a melting point of 90 to 91 °C. With `O=C(O)Cc1cc(Cl)cc(Cl)c1OCCc1ccccc1`, the melting point fell in the range of 73 to 76 °C.

Consider `COCCc1nc2c(N)nc3ccccc3c2n1CCOCCN(C)C(=O)N1CCOCC1`, for which the melting point is 122 °C. For the compound `NC(=O)c1c(F)ccc(OCc2ccc3sccc3c2)c1F`, the melting point was 146 to 148 °C. With `COc1cc(NC(=O)Nc2c(-c3ccccc3C)c3cc(C)c(C)cc3oc2=O)cc(OC)c1OC(C)=O`, the melting point lay within 238 to 240 °C.

`Cn1cc(Br)cc(Nc2cc3n(n2)CCOC3)c1=O` came in with a melting point of 195 to 197 °C. In turn, `CCOC(=O)c1c(CCCn2cncn2)nc2sc3cnccc3c2c1-c1ccc(OC)c(OC)c1` had a melting point of 127 to 129 °C. For the compound `CCCCCCCN(C)C(=O)Nc1ccc(F)cc1NC(=O)c1cc(C(C)(C)C)c(O)c(C(C)(C)C)c1`, the melting point is 164 to 167 °C. Regarding `Cc1cc(F)c([N+](=O)[O-])cc1[N+](=O)[O-]`, the melting point turned out to be 76 °C. Compound `Cc1nc2n(c(=O)c1CCN1CCC(=C(c3ccccc3)c3ccccc3)CC1)CCCS2` came in with a melting point of 176 °C. In the case of `CC(=O)Nc1nonc1-c1nc2ccccc2n1CC(=O)c1ccc(Cl)cc1`, the melting point is 202 to 205 °C. The compound `c1nc(SC2CCCCC2)c2cc[nH]c2n1` returned a melting point of 162 to 163 °C. Compound `CC(C)(CO)NC(=O)c1cccnc1` displayed a melting point of 91 to 93 °C. For `COc1ccc(CCc2cc(OC)c(OC)cc2C)cc1OC`, the melting point came to 102 °C. For the compound `Cc1cc(Br)c2c(c1)C(C(=O)O)c1ccccc1CO2` (centres undefined), the melting point was in the range of 196 to 197 °C. As for `CC(C)(C)n1ncc(NCCN2CCNC(c3cccc(C(F)(F)F)c3)C2)c(Cl)c1=O` (centres undefined), the melting point is 124 to 127 °C. `O=C(O)Cc1nn(Cc2nc3cc(F)cc(F)c3s2)c(=O)c2ccccc12` registered a melting point of 178 °C.

`NS(=O)(=O)c1cc(C(=O)O)cc([N+](=O)[O-])c1NCCc1ccccc1`: the melting point came out at 208 °C.

The compound `N#Cc1nn(-c2c(Cl)cc(C(F)(F)F)cc2Cl)cc1I` displayed a melting point of 83 to 84 °C. Turning to `O=C(NCC12CC3CC(CC(C3)C1)C2)c1cccc(F)c1Cl`, the melting point lay in the range of 149 to 151 °C. Under `CS(=O)(=O)Nc1c(CCCCCCC(=O)O)ccc2ccccc12` stands 122 to 127 °C.

With `Fc1ccc(N2CCN(CCCOc3cccc(-c4nnco4)c3)CC2)cc1`, the melting point lay within 105 to 106 °C.

As to `CN(C)CCOc1ccc2c(c1)Cc1cc(OCCN(C)C)ccc1O2`, the melting point was 85 to 86.5 °C. `O=Cc1ccc(-c2ccccc2)cc1Cl` showed a melting point of 90 to 91 °C. Regarding `NC(=O)c1ccc(C(F)(F)F)cc1-c1cnccc1Oc1cccc(CCC(=O)N2CCN(Cc3ccc4c(c3)OCO4)CC2)c1`, the melting point was in the range of 140 to 141 °C.

For the compound `O=C(c1ccc(Cl)cc1)c1cnc2ccc(Cl)cc2c1O`, the melting point is greater than 260 °C. `CC(n1cnc2cc(-c3ccc(F)cc3)sc2c1=O)C(O)(Cn1cncn1)c1ccc(F)cc1F` (centres undefined): the melting point lay in the range of 118 to 127 °C. For `Cc1ccc(S(=O)(=O)OCC2COc3ccc4c(c3O2)CCO4)cc1` (centres undefined), the melting point was in the range of 95 to 96 °C. With `CC(=O)NNc1ccnc2c(NC(=O)c3ccccc3[N+](=O)[O-])cccc12`, the melting point fell in the range of 232 to 235 °C. As to `CCOC(=O)C(Cc1cc2cccnc2n(-c2cccc([N+](=O)[O-])c2)c1=O)C(=O)c1ccncc1` (centres undefined), the melting point lay in the range of 72 to 73 °C. Consider `Clc1ccccc1-c1nc(Cl)c2ccccc2n1`, for which the melting point lay in the range of 127 to 129 °C. As to `Nc1nc2c(N)cc(OC(F)(F)F)cc2s1`, the melting point amounted to 206 °C.

Take `CNC(=O)c1ccccc1Nc1nc(Nc2ccc3c(c2)CCCC(=O)N3C)ncc1Cl`: the melting point is 244 to 246 °C.

Turning to `CC(C)N(CCn1c(CO)nc2c(N)nc3ccccc3c21)C(N)=O`, the melting point is greater than 240 °C.

With `COc1cc(C)c(C(=O)c2c(Cl)cncc2Cl)c(OC)c1OC`, the melting point lay within 109 to 111 °C. For the compound `COC(OC)C1CN=C(c2cc3cccc(NS(=O)(=O)c4ccccn4)c3[nH]2)S1` (centres undefined), the melting point stood at 153 °C.

In turn, `Cc1cc(OC(=O)N[C@@H](CCC(=O)O)C(=O)O)ccc1N(CCCl)CCCl` registered a melting point of 160 to 162 °C. `CC(C)(C)OC(=O)c1ccc2c(c1)NCc1ccccc1O2` showed a melting point of 121 to 123 °C. As for `N#Cc1c(Cl)nc2ccccc2c1Cl`, the melting point was 157 °C. The compound `COC(=O)C(C)c1ccc(-c2ccccc2)c(O)c1` (centres undefined) displayed a melting point of 106 to 108 °C. On to `O=CC1=CCC(F)(C2COC(c3c(F)cccc3F)=N2)C=C1` (centres undefined), for which the melting point was 105 to 106 °C. The compound `COc1cccc2c1Cc1ccccc1C2(CCOS(C)(=O)=O)CCOS(C)(=O)=O` showed a melting point of 128 to 131 °C.

Regarding `N=C(Nc1ccc(OCCNCc2ccccc2)cc1F)c1cccs1`, the melting point lay within 105 to 107 °C.

`CCCCC(=O)OC1(C(=O)CO)CCC2C3CC(C)C4=CC(=O)CCC4(C)C3C(O)CC21C` (centres undefined) came in with a melting point of 160 °C. Under `Cc1ccc(CCC(=O)c2ccc(N3CCN(c4ccncc4)CC3)cc2)cc1` stands 130 to 132 °C; under `COc1ccc2c(=O)c3c(Cl)ccc([N+](=O)[O-])c3oc2c1`, 211 to 213 °C; under `Cc1nc2c(cc1C(=O)NC(=N)N)CCCCC2O` (centres undefined), 207 to 210 °C. Take `Cc1ccccc1-c1ccc(O)c(C(=O)O)c1`: the melting point came to 151 °C. As to `COc1ccc(N2CCN(c3ccc(-n4cnn([C@H](C)[C@@]5(c6ccc(F)cc6F)CO5)c4=O)cc3)CC2)cc1`, the melting point lay within 175 to 176 °C. Turning to `CCOC(=O)c1cnn(-c2ccccn2)c1S(=O)(=O)NC(=O)Nc1nc(OC)cc(OC)n1`, the melting point was 140 to 142 °C. In the case of `OCCCOC(c1ccccc1)c1ccccc1`, the melting point was in the range of 140 to 141 °C.

`Nc1ccc(Sc2ccccn2)cn1`: the melting point was 121 °C. Turning to `O=C1CCc2c(-c3ccncc3)sc(-c3ccc(F)cc3)c21`, the melting point lay in the range of 193 to 195 °C. Under `CC(=O)OCC1OC(OC(C)=O)C(N=[N+]=[N-])C(OC(C)=O)C1OC1OC(COC(C)=O)C(OC(C)=O)C(OC(C)=O)C1OC(C)=O` (centres undefined) stands 77 to 78 °C; under `CC(C)(C)c1cc(-n2nc3ccccc3n2)c(O)c(C(C)(C)C)c1`, 150 to 152 °C. Compound `CC(C)Oc1c(C(=O)O)sc(-c2ccccc2)c1Br` yielded a melting point of 159 to 160 °C. As for `CN1C(=O)CCC(C)(C)c2cc(N)ccc21`, the figure is 119 to 122 °C; as for `COc1ccc2[nH]c(CC(C)C)c(C=O)c2c1`, 146 to 147 °C; as for `COc1cccc2c1CCC1C(=O)OC(=O)C21` (centres undefined), 138 to 140 °C. In turn, `C[C@@H](n1cnc2cc(-c3ccc(C=NNO)cc3)sc2c1=O)[C@](O)(Cn1cncn1)c1ccc(F)cc1F` registered a melting point of 246 to 247 °C.
